Experimental data: PubChem BioAssay (NCI)
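48-hour exposure; five concentrations; linearly interpolated endpoints. TGI marks complete inhibition of growth.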

Experiments:
Experiment in all cases: growth of human tumour cells (NCI), 48 h
HOP-62 NSCLC = system: HOP-62 NSCLC
OVCAR-3 ovarian = system: OVCAR-3 ovarian
MOLT-4 leukemia = system: MOLT-4 leukemia
KM12 colon = system: KM12 colon
SK-OV-3 ovarian = system: SK-OV-3 ovarian
NCI-H460 lung = system: NCI-H460 lung
MCF7 breast = system: MCF7 breast
ACHN renal = system: ACHN renal
SF-539 CNS = system: SF-539 CNS
M14 melanoma = system: M14 melanoma
MALME-3M melanoma = system: MALME-3M melanoma
T-47D breast = system: T-47D breast
UACC-257 melanoma = system: UACC-257 melanoma
HCC-2998 colon = system: HCC-2998 colon
MDA-MB-435 = system: MDA-MB-435
SF-268 CNS = system: SF-268 CNS
HL-60(TB) leukemia = system: HL-60(TB) leukemia
NCI-H23 lung = system: NCI-H23 lung
SK-MEL-28 melanoma = system: SK-MEL-28 melanoma
RXF 393 renal = system: RXF 393 renal
MDA-MB-231 breast = system: MDA-MB-231 breast
SNB-75 CNS = system: SNB-75 CNS
TK-10 renal = system: TK-10 renal
UACC-62 melanoma = system: UACC-62 melanoma
SR leukemia = system: SR leukemia
K-562 leukemia = system: K-562 leukemia
UO-31 renal = system: UO-31 renal
A498 renal = system: A498 renal
SN12C renal = system: SN12C renal
SF-295 CNS = system: SF-295 CNS
OVCAR-5 ovarian = system: OVCAR-5 ovarian
HCT-15 colon = system: HCT-15 colon
OVCAR-4 ovarian = system: OVCAR-4 ovarian
EKVX NSCLC = system: EKVX NSCLC
COLO 205 colon = system: COLO 205 colon
MDA-N = system: MDA-N
OVCAR-8 ovarian = system: OVCAR-8 ovarian
PC-3 prostate = system: PC-3 prostate
LOX IMVI melanoma = system: LOX IMVI melanoma
786-0 renal = system: 786-0 renal
RPMI-8226 leukemia = system: RPMI-8226 leukemia
U251 CNS = system: U251 CNS
CAKI-1 renal = system: CAKI-1 renal
DU-145 prostate = system: DU-145 prostate
SK-MEL-2 melanoma = system: SK-MEL-2 melanoma
BT-549 breast = system: BT-549 breast
SNB-19 CNS = system: SNB-19 CNS
CCRF-CEM leukemia = system: CCRF-CEM leukemia
NCI-H226 lung = system: NCI-H226 lung
HS 578T breast = system: HS 578T breast
SW-620 colon = system: SW-620 colon
HCT-116 colon = system: HCT-116 colon
HT29 colon = system: HT29 colon
NCI-H522 lung = system: NCI-H522 lung

Measured: TGI

CC1(C)OC[C@@H](O)[C@H](Br)CO1
not listed: NCI-H522 lung
> 100 µM: all other assays above

CCOC(=O)Cc1cnc(NC(NC(=O)CC)(C(F)(F)F)C(F)(F)F)s1
not listed: SF-295 CNS | OVCAR-4 ovarian | COLO 205 colon | OVCAR-8 ovarian | PC-3 prostate | 786-0 renal | CAKI-1 renal | SW-620 colon
> 100 µM: all other assays above
